Data on seven compounds can be found in ChEMBL document CHEMBL1149552, “Praziquantel derivatives I: Modification of the aromatic ring” (2007).

Each structure is given as a SMILES string. In brackets after ≈: the same amount, converted by molar mass. A value given as a limit tells only on which side of the number the result lay.

Holding throughout (type): functional
Test [1] deals with Schistosoma mansoni. The test can be described thus: Antischistosomal activity against Schistosoma mansoni assessed as 100% killing of schistosomes.
Test [2] relates to Schistosoma mansoni. The test can be described thus: Antischistosomal activity against Schistosoma mansoni assessed as shcistomes paralysis relative to Praziquantel.
The test system of test [3] is Schistosoma mansoni. As to the kind of experiment: Antischistosomal activity against Schistosoma mansoni assessed as 100% killing of shcistomes relative to Praziquantel.
Test [4] deals with Schistosoma mansoni. As to the kind of experiment: Antischistosomal activity against Schistosoma mansoni assessed as complete spastic paralysis.

Take `O=C(C1CCC(O)CC1)N1CC(=O)N2CCc3ccccc3C2C1` (stereo unspecified): the MLC with Schistosoma mansoni [1] amounted to 200 µM (≈ 65.7 µg/mL). The Activity is 1.3% with Schistosoma mansoni [2], 1.5% in the test on Schistosoma mansoni [3] and 75 µM in the test on Schistosoma mansoni [4].

For `O=C(C1CCCCC1)N1CC(=O)N2CCc3ccc([N+](=O)[O-])cc3C2C1` (stereo unspecified), in the test on Schistosoma mansoni [1], the MLC was greater than 300 µM. Further, the Activity in the test with Schistosoma mansoni [2] was less than 0.3%; in the test with Schistosoma mansoni [3], less than 1%; in the test on Schistosoma mansoni [4], greater than 300 µM.

Take `Nc1ccc2c(c1)C1CN(C(=O)C3CCCCC3)CC(=O)N1CC2` (stereo unspecified): the MLC with Schistosoma mansoni [1] stood at 28 µM (≈ 9.17 µg/mL). For the same compound, the results for the Activity with Schistosoma mansoni [2], in the test with Schistosoma mansoni [3] and in the test with Schistosoma mansoni [4] were 10%, 10.7% and 10 µM, respectively.

For `CC(=O)Nc1ccc2c(c1)C1CN(C(=O)C3CCCCC3)CC(=O)N1CC2` (stereo unspecified), the MLC in the test on Schistosoma mansoni [1] was greater than 300 µM. Also, the values for the Activity in the test on Schistosoma mansoni [2], with Schistosoma mansoni [3] and with Schistosoma mansoni [4] were less than 0.3%, less than 1% and greater than 300 µM, respectively.

Regarding `Nc1ccc(C(=O)N2CC(=O)N3CCc4ccccc4C3C2)cc1` (stereo unspecified), the MLC in the test with Schistosoma mansoni [1] worked out at 18 µM (≈ 5.78 µg/mL). Also, the Activity in the test on Schistosoma mansoni [2] worked out at 14.3%; in the test with Schistosoma mansoni [3], 16.6%; in the test with Schistosoma mansoni [4] it was 7 µM.

With `Nc1cccc(C(=O)N2CC(=O)N3CCc4ccccc4C3C2)c1` (stereo unspecified), the MLC in the test with Schistosoma mansoni [1] came to 12 µM (≈ 3.86 µg/mL). Also, the results for the Activity in the test on Schistosoma mansoni [2], in the test on Schistosoma mansoni [3] and with Schistosoma mansoni [4] were 14.3%, 25% and 7 µM, respectively.

With `O=C(C1CCCCC1)N1CC(=O)N2CCc3ccccc3C2C1` (stereo unspecified) [PRAZIQUANTEL], in the test with Schistosoma mansoni [1], the MLC turned out to be 3 µM (≈ 0.937 µg/mL). The Activity in the test on Schistosoma mansoni [4] stood at 1 µM.
